Test results published in patent publication US5582832A, “Compositions for topical application to skin” (priority 1995, dated 1996).

Legend:
[1] = system: 25D degradation (vitamin D metabolism in keratinocytes); assay: Vitamin D metabolism in keratinocytes: 25D degradation; format: cell-based, human; conditions: for 25D (% degradation): Table 3, 10 uM
Method: (§1) 1. Normal human keratinocytes isolated from neonatal foreskins by trypsin treatment were grown in DME medium/10% fetal calf serum in the presence of irradiated 3T3 mouse fibroblasts for establishing dividing keratinocyte colonies. Keratinocytes were grown under the above condition until their third passage.
(§2) 80% confluent keratinocytes were incubated with 0.05 uCi of ^3 H-25D or ^3 H-1,25D for two hours or 20 hours in the presence of 1-100 uM of the different compounds. Reaction was stopped by addition of methanol and the cells and medium were extracted using chloroform:methanol. The chloroform layer was separated, dried and spotted on TLC plates. […] The amount of radioactivity in each lane was quantitated using the BioScan radioactive plate reader. The amount of radioactivity remaining in the peak area of 25D and 1,25D were calculated as % of control. The % remaining was subtracted from 100 to get the % degradation of the metabolites.
(§3) The data are expressed as mean of % degradation of 25D or 1,25D. The range is also given in parenthesis.

[2] = system: 1,25D degradation (vitamin D metabolism in keratinocytes); assay: Vitamin D metabolism in keratinocytes: 1,25D degradation; format: cell-based, human; conditions: for 1,25D (% degradation): Table 3, 10 uM
Method: as §1, §2, §3

keratinocytes [3] = assay: Rate of DNA synthesis (3H-thymidine incorporation) in keratinocytes; format: cell-based, human
Method: as §1
2. For the experiments, third passage keratinocytes were plated into a serum-free keratinocyte growth medium (KSFM; obtained from Life Technologies, Grand Island, N.Y.) containing 0.09 mM calcium. 20,000 to 30,000 cells were plated into each well of 24 well cell culture plates and grown for 5 days, until the cells reach about 80% confluence.
3. Medium was changed to fresh medium and the various test materials were added to the medium from an ethanolic stock solution (10:00 AM). The final ethanol concentration in the cultures was kept below 0.2%. Control cultures received no tested material but were dosed with 0.2% ethanol. Each compound or combination was tested in three separate wells. By 4:00 PM, 1 uCi of ^3 H-thymidine (Amersham Corp., Sp activity 40 Ci/mmol) was added to the 1 ml medium in each well. The cells were incubated overnight and […] (10:00 AM next day) the amount of ^3 -thymidine associated with the cellular DNA of keratinocytes was assessed as described below.
4. The medium was aspirated, and the wells washed with 1 ml phosphate-buffered saline. The DNA and proteins of the cells in the plate were then precipitated by adding 1 ml of ice-cold 10% trichloroacetic acid (TCA). The plates were left on ice for 30 minutes to complete the precipitation process. TCA was then aspirated and each well was then washed four times with 5% TCA. The plates were then dried on a filter pad and the cells in the wells were dissolved in 0.5 ml of 0.1N sodium hydroxide. The sodium hydroxide was then neutralized using 0.1N hydrochloric acid and the solution (1 ml total volume) was then transferred to a scintillation vial. 50 μl samples from each vial were used for protein assay using BCA protein assay reagent obtained from Pierce Chemical Company. 8 ml of a scintillation fluid (Ecolume) was added to the rest of the solution in the vial, and the vials were counted in a scintillation counter to determine the amount of radioactivity in each vial. The DNA synthesis rate was then calculated as cpm ^3 H thymidine incorporated into total cellular DNA/microgram of cell protein for each individual well. Mean and standard deviation for each group was also calculated.
Rationale for using 1,25D is that in in vivo situation, these azoles will inhibit the endogenous degradation of the 1,25D which is obtained from the circulation. Azoles will act in keratinocytes to increase the endogenous levels of 1,25D within cells. Keratinocytes (70% confluent) were incubated with 10 uM of the different azoles in the presence of 100 nM 1,25D. One of the groups was treated with 5 uM of ceramide of Formula A in the medium. After four hours, all the wells were treated with 1 uCi ^3 H-thymidine and the rate of DNA synthesis was estimated as described in the methods.
Keratinocytes were incubated with 1 or 10 uM of Econazole in the presence of 1 uM of the different ceramide analogues and 100 nM 1,25D in the medium. Thymidine incorporation was measured with an overnight incubation as described in Example 2.

[4] = system: histamine induced erythema; conditions: cited from earlier work
keratinocytes [5] = conditions: exogenous or endogenous; cited from earlier work
vitamin D metabolism = conditions: cited from earlier work
[6] = Table 2, 1 uM, 20 hour incubation, mean of duplicate (range)

With `c1ccc(-c2ccc(C(c3ccccc3)n3ccnc3)cc2)cc1` (stereo not shown) [Bifonazole] the “blocking of 25D degradation (in words)” value ([1]; 1 uM, 20 hours (Table 2)) was “very effective”, the “blocking of 25D metabolism (in words)” value ([1]; 2 hours) was “ineffective” and the “blocking of 25D metabolism (in words)” value ([1]; 20 hours) was “very effective”. For the same molecule, the “% degradation (25D)” value ([1]; Table 1, 10 uM compound) was 15%, the “25D degradation (%)” value [1, 6] was 41.2 (35.4-47.1) % and the “25D (% degradation)” value ([1]; 2 hours) was 89%. For the same molecule, the “25D (% degradation)” value ([1]; 20 hours) was 15%, the “blocking of 1,25D degradation (in words)” value ([2]; 1 uM, 20 hours (Table 2)) was “very effective” and the “blocking of 1,25D metabolism (in words)” value ([2]; 2 hours) was “ineffective”. The “blocking of 1,25D metabolism (in words)” value ([2]; 20 hours) was “very effective”, the “% degradation (1,25D)” value ([2]; Table 1, 10 uM compound) was 56% and the “1,25D degradation (%)” value [2, 6] was 37.0 (25.4-48.6) %. For the same molecule, the “1,25D (% degradation)” value ([2]; 2 hours) was 83%, the “1,25D (% degradation)” value ([2]; 20 hours) was 56% and the “DNA synthesis, % of control (100 nM 1,25D + 5 uM ceramide Formula A)” value (keratinocytes [3]; Table 4, 10 uM azole (or no azole) + 100 nM 1,25D + 5 uM ceramide Formula A, mean + SD, * = synergistic effect, 1440 min) was 44.4 + 7.3 % of control. The “DNA synthesis, % of control (azole, only 100 nM 1,25D)” value (keratinocytes [3]; Table 4, 10 uM azole, 100 nM 1,25D, no ceramide, mean + SD, 1440 min) was 75.8 + 4.3 % of control, the “DNA synthesis (% control)” value (keratinocytes [3]; Tables 4A-4F, 100 nM 1,25D, azole 10 uM, ceramide Formula A 5 uM, 1440 min) was 75.8 % control and the DNA synthesis (keratinocytes [3]; Tables 4A-4F, 100 nM 1,25D, azole 10 uM, ceramide Formula A 5 uM, mean + SD) was 111256 + 6355 cpm 3H thymidine incorporated. For the same molecule, the “direct anti-inflammatory activity (in words)” value [4] was “direct anti-inflammatory activity”.

In the case of `C=C1/C(=C\C=C2/CCC[C@]3(C)[C@@H]([C@H](C)CCCC(C)(C)O)CC[C@@H]23)C[C@@H](O)C[C@@H]1O` [1,25-(OH)2 D3], the “inhibition of DNA synthesis and induction of differentiation (in words)” value (keratinocytes [5]) is listed as “inhibit DNA synthesis (i.e., inhibit growth) and induce differentiation of keratinocytes”.

For `CC(=O)N1CCN(c2ccc(OCC3COC(Cn4ccnc4)(c4ccc(Cl)cc4Cl)O3)cc2)CC1` (stereo not shown) [Ketoconazole, ketoconazole], the “inhibition of vitamin D metabolism (in words)” value (vitamin D metabolism) is given as “established inhibitor of vitamin D metabolism”.

In the case of `C=C1CC[C@H](O)C/C1=C/C=C1\CCC[C@]2(C)[C@@H]([C@H](C)CCCC(C)(C)O)CC[C@@H]12` [25-hydroxyvitamin D (25D), 25-hydroxyvitamin D], the “inhibition of DNA synthesis and induction of differentiation (in words)” value (keratinocytes [5]) is given as “inhibit DNA synthesis (i.e., inhibit growth) and induce differentiation of keratinocytes”.
